Data from ChEMBL document CHEMBL5331074, “Design and synthesis of new adamantyl derivatives as promising antiproliferative agents” (Eur J Med Chem, 2023).
Calls of active or inactive are those of the source. The rule behind the calls is not given here.

Assays:
HT-29 [1] = experiment: Cytotoxicity against human HT-29 assessed as cell growth inhibition; assay type: functional, cell-based
HCC 2998 = experiment: Cytotoxicity against human HCC 2998 cells assessed as cell growth inhibition; assay type: functional, cell-based
[2] = target: Ectonucleotide pyrophosphatase/phosphodiesterase family member 1 (Homo sapiens, UniProt P22413); experiment: Inhibition of human NPP1 expressed in COS-7 cells using pNP-TMP as substrate preincubated for 10 mins followed by substrate addition and measured after 35 mins by microplate reader analysis; assay type: cell-based
UACC-257 = experiment: Cytotoxicity against human UACC-257 cells assessed as cell growth inhibition; assay type: functional, cell-based
HOP-62 = experiment: Cytotoxicity against human HOP-62 cells assessed as cell growth inhibition; assay type: functional, cell-based
SF-268 = experiment: Cytotoxicity against human SF-268 cells assessed as cell growth inhibition; assay type: functional, cell-based
NCI/ADR-RES = experiment: Cytotoxicity against human NCI/ADR-RES cells assessed as cell growth inhibition; assay type: functional, cell-based
HCT-15 = experiment: Cytotoxicity against human HCT-15 cells assessed as cell growth inhibition; assay type: functional, cell-based
MDA-MB-231 = experiment: Cytotoxicity against human MDA-MB-231 cells assessed as cell growth inhibition; assay type: functional, cell-based
ACHN = experiment: Cytotoxicity against human ACHN cells assessed as cell growth inhibition; assay type: functional, cell-based
TK-10 = experiment: Cytotoxicity against human TK-10 cells assessed as cell growth inhibition; assay type: functional, cell-based
SR = experiment: Cytotoxicity against human SR cells assessed as cell growth inhibition; assay type: functional, cell-based
U-251 = experiment: Cytotoxicity against human U-251 cells assessed as cell growth inhibition; assay type: functional, cell-based
A498 = experiment: Cytotoxicity against human A498 cells assessed as cell growth inhibition; assay type: functional, cell-based
MDA-MB-468 = experiment: Cytotoxicity against human MDA-MB-468 cells assessed as cell growth inhibition; assay type: functional, cell-based
Hs-578T = experiment: Cytotoxicity against human Hs-578T cells assessed as cell growth inhibition; assay type: functional, cell-based
OVCAR-5 = experiment: Cytotoxicity against human OVCAR-5 cells assessed as cell growth inhibition; assay type: functional, cell-based
HT-29 [3] = experiment: Cytotoxicity against human HT-29 cells assessed as cell growth inhibition; assay type: functional, cell-based
[4] = target: Ectonucleotide pyrophosphatase/phosphodiesterase family member 3 (Homo sapiens, UniProt O14638); experiment: Inhibition of human NPP3 expressed in COS-7 cells using pNP-TMP as substrate preincubated for 10 mins followed by substrate addition and measured after 35 mins by microplate reader analysis; assay type: cell-based
IGROV-1 = experiment: Cytotoxicity against human IGROV-1 cells assessed as cell growth inhibition; assay type: functional, cell-based
HCT-116 = experiment: Cytotoxicity against human HCT-116 cells assessed as cell growth inhibition; assay type: functional, cell-based
UO-31 = experiment: Cytotoxicity against human UO-31 cells assessed as cell growth inhibition; assay type: functional, cell-based
SF-295 = experiment: Cytotoxicity against human SF-295 cells assessed as cell growth inhibition; assay type: functional, cell-based
NCI-H23 = experiment: Cytotoxicity against human NCI-H23 cells assessed as cell growth inhibition; assay type: functional, cell-based
786-0 = experiment: Cytotoxicity against human 786-0 cells assessed as cell growth inhibition; assay type: functional, cell-based
DU-145 = experiment: Cytotoxicity against human DU-145 cells assessed as cell growth inhibition; assay type: functional, cell-based
HL-60(TB) = experiment: Cytotoxicity against human HL-60(TB) cells assessed as cell growth inhibition; assay type: functional, cell-based
M14 = experiment: Cytotoxicity against human M14 cells assessed as cell growth inhibition; assay type: functional, cell-based
BT-549 = experiment: Cytotoxicity against human BT-549 cells assessed as cell growth inhibition; assay type: functional, cell-based
SK-MEL-2 = experiment: Cytotoxicity against human SK-MEL-2 cells assessed as cell growth inhibition; assay type: functional, cell-based
SK-OV-3 = experiment: Cytotoxicity against human SK-OV-3 cells assessed as cell growth inhibition; assay type: functional, cell-based
OVCAR-8 = experiment: Cytotoxicity against human OVCAR-8 cells assessed as cell growth inhibition; assay type: functional, cell-based
LOX IMVI = experiment: Cytotoxicity against human LOX IMVI cells assessed as cell growth inhibition; assay type: functional, cell-based
SN12C = experiment: Cytotoxicity against human SN12C cells assessed as cell growth inhibition; assay type: functional, cell-based
UACC-62 = experiment: Cytotoxicity against human UACC-62 cells assessed as cell growth inhibition; assay type: functional, cell-based
T47D = experiment: Cytotoxicity against human T47D cells assessed as cell growth inhibition; assay type: functional, cell-based
SK-MEL-5 = experiment: Cytotoxicity against human SK-MEL-5 cells assessed as cell growth inhibition; assay type: functional, cell-based
OVCAR-4 = experiment: Cytotoxicity against human OVCAR-4 cells assessed as cell growth inhibition; assay type: functional, cell-based
SF-539 = experiment: Cytotoxicity against human SF-539 cells assessed as cell growth inhibition; assay type: functional, cell-based
NCI-H522 = experiment: Cytotoxicity against human NCI-H522 cells assessed as cell growth inhibition; assay type: functional, cell-based
[5] = Selectivity index, ratio of IC50 for cytotoxicity against human hTERT-HME1 cells to IC50 for cytotoxicity against human BT-549 cells
NCI-H226 = experiment: Cytotoxicity against human NCI-H226 cells assessed as cell growth inhibition; assay type: functional, cell-based
SW-620 = experiment: Cytotoxicity against human SW620 cells assessed as cell growth inhibition; assay type: functional, cell-based
MCF7 = experiment: Cytotoxicity against human MCF7 cells assessed as cell growth inhibition; assay type: functional, cell-based
HT-29 [6] = experiment: Cytotoxicity against human HT-29 assessed as mean growth inhibition; assay type: functional
RPMI-8226 = experiment: Cytotoxicity against human RPMI-8226 cells assessed as cell growth inhibition; assay type: functional, cell-based
Carbonic anhydrase 9 = Carbonic anhydrase 9 (Homo sapiens, UniProt Q16790)
Description: Inhibition of Carbonic anhydrase 9 (unknown origin) using p-nitrophenyl acetate as substrate preincubated for 10 mins followed by substrate addition and measured after 30 mins by microplate reader method

NCI-H322M = experiment: Cytotoxicity against human NCI-H322M cells assessed as cell growth inhibition; assay type: functional, cell-based
PC-3 = experiment: Cytotoxicity against human PC-3 cells assessed as cell growth inhibition; assay type: functional, cell-based
RXF 393 = experiment: Cytotoxicity against human RXF 393 cells assessed as cell growth inhibition; assay type: functional, cell-based
[7] = Cytotoxicity against human hTERT-HME1 cells assessed as cell growth inhibition; assay type: toxicity, cell-based
KM12 = experiment: Cytotoxicity against human KM12 cells assessed as cell growth inhibition; assay type: functional, cell-based
K562 = experiment: Cytotoxicity against human K562 cells assessed as cell growth inhibition; assay type: functional, cell-based
COLO 205 = experiment: Cytotoxicity against human COLO 205 cells assessed as cell growth inhibition; assay type: functional, cell-based
SNB-75 = experiment: Cytotoxicity against human SNB-75 cells assessed as cell growth inhibition; assay type: functional, cell-based
NCI-H460 = experiment: Cytotoxicity against human NCI-H460 cells assessed as cell growth inhibition; assay type: functional, cell-based
SK-MEL-28 = experiment: Cytotoxicity against human SK-MEL-28 cells assessed as cell growth inhibition; assay type: functional, cell-based
MDA-MB-435 = experiment: Cytotoxicity against human MDA-MB-435 cells assessed as cell growth inhibition; assay type: functional, cell-based
HOP-92 = experiment: Cytotoxicity against human HOP-92 cells assessed as cell growth inhibition; assay type: functional, cell-based
Autotaxin = Autotaxin (Homo sapiens, UniProt Q13822); experiment: Inhibition of human NPP2 expressed in COS-7 cells using pNP-TMP as substrate preincubated for 10 mins followed by substrate addition and measured after 35 mins by microplate reader analysis; assay type: cell-based
Malme-3M = experiment: Cytotoxicity against human Malme-3M cells assessed as cell growth inhibition; assay type: functional, cell-based

Ectonucleotide pyrophosphatase/phosphodiesterase family member 3, sequence (O14638 whole entry): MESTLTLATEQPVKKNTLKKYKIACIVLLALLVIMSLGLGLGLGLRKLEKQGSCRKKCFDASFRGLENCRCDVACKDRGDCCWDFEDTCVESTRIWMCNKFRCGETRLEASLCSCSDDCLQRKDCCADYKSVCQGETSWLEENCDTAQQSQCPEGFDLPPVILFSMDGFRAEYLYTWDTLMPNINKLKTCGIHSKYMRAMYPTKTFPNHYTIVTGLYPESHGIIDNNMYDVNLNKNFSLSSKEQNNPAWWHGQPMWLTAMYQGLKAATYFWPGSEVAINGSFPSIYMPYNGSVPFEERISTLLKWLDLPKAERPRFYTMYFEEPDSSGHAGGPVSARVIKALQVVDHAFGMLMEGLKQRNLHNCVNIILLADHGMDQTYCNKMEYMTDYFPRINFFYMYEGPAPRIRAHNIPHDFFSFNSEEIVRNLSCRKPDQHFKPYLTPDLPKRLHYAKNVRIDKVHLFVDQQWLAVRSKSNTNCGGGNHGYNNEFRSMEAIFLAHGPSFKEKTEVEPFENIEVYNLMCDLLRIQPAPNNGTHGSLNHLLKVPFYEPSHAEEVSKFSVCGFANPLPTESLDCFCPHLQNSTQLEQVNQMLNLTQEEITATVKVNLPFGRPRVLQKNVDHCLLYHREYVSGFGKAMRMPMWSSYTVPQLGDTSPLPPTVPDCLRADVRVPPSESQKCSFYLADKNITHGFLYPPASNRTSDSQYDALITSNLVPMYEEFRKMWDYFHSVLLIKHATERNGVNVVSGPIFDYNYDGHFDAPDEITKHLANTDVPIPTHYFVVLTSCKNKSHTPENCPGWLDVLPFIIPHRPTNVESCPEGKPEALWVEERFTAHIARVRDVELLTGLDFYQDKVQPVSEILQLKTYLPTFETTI
Ectonucleotide pyrophosphatase/phosphodiesterase family member 1, sequence (P22413 whole entry): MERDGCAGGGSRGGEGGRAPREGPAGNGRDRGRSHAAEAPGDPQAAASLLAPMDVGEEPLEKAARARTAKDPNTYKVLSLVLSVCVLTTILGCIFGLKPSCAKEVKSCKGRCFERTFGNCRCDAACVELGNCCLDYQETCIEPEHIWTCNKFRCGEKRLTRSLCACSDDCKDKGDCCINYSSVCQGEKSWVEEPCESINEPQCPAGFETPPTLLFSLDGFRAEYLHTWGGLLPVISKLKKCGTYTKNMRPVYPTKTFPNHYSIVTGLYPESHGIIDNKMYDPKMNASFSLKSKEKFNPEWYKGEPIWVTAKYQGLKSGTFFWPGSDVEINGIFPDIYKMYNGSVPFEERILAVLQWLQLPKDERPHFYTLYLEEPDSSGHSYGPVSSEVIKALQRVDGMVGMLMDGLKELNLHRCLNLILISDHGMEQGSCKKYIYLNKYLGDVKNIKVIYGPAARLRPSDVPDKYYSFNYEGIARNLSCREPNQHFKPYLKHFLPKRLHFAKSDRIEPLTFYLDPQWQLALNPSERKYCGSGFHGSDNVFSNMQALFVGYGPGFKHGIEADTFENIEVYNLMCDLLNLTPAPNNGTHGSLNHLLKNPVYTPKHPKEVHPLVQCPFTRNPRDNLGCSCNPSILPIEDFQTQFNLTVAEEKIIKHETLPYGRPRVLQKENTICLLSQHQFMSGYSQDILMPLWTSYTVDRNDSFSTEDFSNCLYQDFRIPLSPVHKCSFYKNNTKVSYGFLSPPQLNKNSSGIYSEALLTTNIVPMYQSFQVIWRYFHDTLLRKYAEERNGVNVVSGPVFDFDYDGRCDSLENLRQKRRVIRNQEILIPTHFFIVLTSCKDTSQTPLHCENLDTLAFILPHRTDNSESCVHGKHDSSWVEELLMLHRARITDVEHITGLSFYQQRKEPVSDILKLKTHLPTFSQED

O=C(Nc1ccc(OS(=O)(=O)c2ccccc2)cc1)C12CC3CC(CC(C3)C1)C2
inhibition (HT-29 [1]): Active
IC50 (HCC 2998): 5.48 µM
IC50 [2]: 1.36 µM
IC50 (UACC-257): 13.5 µM
IC50 (HOP-62): > 100 µM
IC50 (SF-268): > 100 µM
IC50 (NCI/ADR-RES): 5.75 µM
IC50 (HCT-15): 1 µM
IC50 (MDA-MB-231): 3.79 µM
IC50 (ACHN): > 100 µM
IC50 (TK-10): > 100 µM
IC50 (SR): 0.58 µM
IC50 (U-251): 4.81 µM
IC50 (A498): 2.04 µM
IC50 (MDA-MB-468): 3.8 µM
IC50 (Hs-578T): 7.29 µM
IC50 (OVCAR-5): > 100 µM
IC50 (HT-29 [3]): 0.4 µM
IC50 [4]: 3 µM
IC50 (IGROV-1): > 100 µM
IC50 (HCT-116): 2.5 µM
IC50 (UO-31): 18.7 µM
IC50 (SF-295): 8.27 µM
IC50 (NCI-H23): 6.68 µM
IC50 (786-0): 3.8 µM
IC50 (DU-145): > 100 µM
IC50 (HL-60(TB)): 8.39 µM
IC50 (M14): 7.2 µM
IC50 (BT-549): 3.24 µM
IC50 (SK-MEL-2): > 100 µM
IC50 (SK-OV-3): > 100 µM
IC50 (OVCAR-8): > 100 µM
IC50 (LOX IMVI): 4.38 µM
IC50 (SN12C): > 100 µM
IC50 (UACC-62): 6.47 µM
IC50 (T47D): 3.57 µM
IC50 (SK-MEL-5): 3.12 µM
IC50 (OVCAR-4): 8.38 µM
IC50 (SF-539): 0.96 µM
IC50 (NCI-H522): 4.36 µM
Ratio IC50 [5]: 15.4
IC50 (NCI-H226): 27.7 µM
IC50 (SW-620): 1.97 µM
IC50 (MCF7): 3.26 µM
inhibition (INH) (HT-29 [6]): 85.4%
IC50 (RPMI-8226): 0.4 µM
IC50 (Carbonic anhydrase 9): 1.02 µM
IC50 (NCI-H322M): > 100 µM
IC50 (PC-3): 2.9 µM
IC50 (RXF 393): 5.12 µM
IC50 [7]: > 50 µM
IC50 (KM12): 2.1 µM
IC50 (K562): 0.32 µM
IC50 (COLO 205): 0.87 µM
IC50 (SNB-75): 7.16 µM
IC50 (NCI-H460): 6.1 µM
IC50 (SK-MEL-28): > 100 µM
IC50 (MDA-MB-435): > 100 µM
IC50 (HOP-92): 1.87 µM
IC50 (Autotaxin): 1.35 µM
IC50 (Malme-3M): > 100 µM

O=C(Nc1ccc(OS(=O)(=O)c2ccc(F)cc2)cc1)C12CC3CC(CC(C3)C1)C2
inhibition (HT-29 [1]): Active
IC50 (HCC 2998): 7.95 µM
IC50 [2]: 1.13 µM
IC50 (UACC-257): 3.4 µM
IC50 (HOP-62): 11.1 µM
IC50 (SF-268): 20.8 µM
IC50 (NCI/ADR-RES): 0.94 µM
IC50 (HCT-15): 0.42 µM
IC50 (MDA-MB-231): 1.87 µM
IC50 (ACHN): 15.7 µM
IC50 (TK-10): 20.2 µM
IC50 (SR): 3.6 µM
IC50 (U-251): 19.4 µM
IC50 (A498): 0.28 µM
IC50 (MDA-MB-468): 1.01 µM
IC50 (Hs-578T): 2.29 µM
IC50 (OVCAR-5): 28.8 µM
IC50 (HT-29 [3]): 0.2 µM
IC50 [4]: 0.74 µM
IC50 (IGROV-1): 10.4 µM
IC50 (HCT-116): 0.63 µM
IC50 (UO-31): 3.43 µM
IC50 (SF-295): 1.81 µM
IC50 (NCI-H23): 7.71 µM
IC50 (786-0): 5.08 µM
IC50 (DU-145): 10.6 µM
IC50 (HL-60(TB)): 2.68 µM
IC50 (M14): 6.02 µM
IC50 (BT-549): 4.28 µM
IC50 (SK-MEL-2): 10.5 µM
IC50 (SK-OV-3): 7.83 µM
IC50 (OVCAR-8): 12.8 µM
IC50 (LOX IMVI): 7.57 µM
IC50 (SN12C): 19 µM
IC50 (UACC-62): 3.14 µM
IC50 (T47D): 0.83 µM
IC50 (SK-MEL-5): 3.61 µM
IC50 (OVCAR-4): 1.61 µM
IC50 (SF-539): 0.76 µM
IC50 (NCI-H522): 3.39 µM
Ratio IC50 [5]: 11.7
IC50 (NCI-H226): 19.2 µM
IC50 (SW-620): 0.41 µM
IC50 (MCF7): 0.59 µM
inhibition (INH) (HT-29 [6]): 63.5%
IC50 (RPMI-8226): 2.15 µM
IC50 (Carbonic anhydrase 9): 0.33 µM
IC50 (NCI-H322M): 5.55 µM
IC50 (PC-3): 0.49 µM
IC50 (RXF 393): 4.76 µM
IC50 [7]: > 50 µM
IC50 (KM12): 0.72 µM
IC50 (K562): 0.58 µM
IC50 (COLO 205): 0.58 µM
IC50 (SNB-75): 1.97 µM
IC50 (NCI-H460): 2.3 µM
IC50 (SK-MEL-28): 28.7 µM
IC50 (MDA-MB-435): 7.8 µM
IC50 (HOP-92): 1.06 µM
IC50 (Autotaxin): 1.07 µM
IC50 (Malme-3M): 4.07 µM
